The source of these data is patent US20080076750A1, “Azetidinone Derivatives and Methods of Use Thereof” (priority 2006, published 2008).

pIC50, pKi: −log10 of the molar value. Read-outs that look alike come from different tables or passages of the source.

For one assay, the target named is T1, human Cav3.2 (Homo sapiens, UniProt O95180).
T1 construct: expressed in transfected cells
The assay can be described thus: IonWorks Screen for hCaV3.2. In kind it is cell-based. To be noted: IonWorks HT, HEK cells expressing human Cav3.2, 10 minutes incubation, pulse 10; read-out: IW hCav3.2 IC50. The text has this:
Functional evaluation of voltage-gated ion channels can be used to determine potency and/or single concentration efficacy of the Azetidinone Derivatives. Two different methodologies can be used to measure ion currents: the Ionworks HT (Molecular Devices, Sunnyvale, Calif.) a moderate throughput voltage clamp screening platform that utilizes 96-well compound plates and conventional whole cell patch clamp for lower throughput, higher fidelity determinations.
HEK cells are transiently transfected and then selected for stable heterologous expression of different channel proteins of interest. Calcium channel cell lines expressed a resting potassium current, human Kir2.1, and the pore forming α-subunit of voltage-gated calcium channels. In the case of Cav2.1 cells the auxiliary subunit, β2α, is also expressed. Calcium channel lines that are used to generate the data will express either human Cav3.2, rat Cav3.2 or human Cav2.1. The human heart sodium channel, hNav1.5, are stably expressed in CHO cells.
Cell lines can be grown at 37° C. in humidified incubators, equilibrated with 95% air/5% CO2. CHO cells can be grown in Ham's F-12 medium. HEK cells can be grown in DMEM. All media are supplemented with 10% heat-inactivated fetal bovine serum, penicillin, streptomycin and appropriate selection antibiotics (zeocin, geneticin and/or hygromycin). Cells are passaged when 80% confluent or less.
IonWorks Screen for hCaV3.2
The extracellular buffer for experiments using this instrument contained the following (mM) (NaCl 125, HEPES 10, KCl 5.4, CaCl2 1.8, MgCl2 1.8, 0.2 BaCl2 pH 7.35). The IonWorks uses amphotericin to gain electrical access to the cell interior. The internal solution contained (mM concentrations): 130 K-gluconate, 20 KCl, 5 HEPES-KOH (pH 7.25), 2 CaCl2, 1 MgCl2. Amphotericin added at 5 mg in 65 mL when present (in 650 μL DMSO). All internal and external solutions for this experiment contain 1% DMSO. Cells were acutely trypsinized from a T-75 flask and resuspended in extracellular buffer at a density of 2×10^5 cells/mL.
Experiments were performed at room temperature. Transmembrane potential was held at −100 mV for 5 seconds prior to running the voltage protocol. During this time leak currents were measured during a step to −110 mV (200 milliseconds), T-type calcium currents were activated with a 250 millisecond step to −20 mV. This depolarization step was repeated for a total of 10 pulses with an interpulse interval of 1 second. Data were excluded if the following acceptance criteria were not met: total resistance for the pre-compound scan>65 MΩ, pre-compound current>250 pA, post compound total resistance>50 MΩ.
T-type currents were measured as the peak inward current minus the current at the end of the 250 msec step to −20 mV. After the recoding configuration was established there was a pre-compound measurement of current amplitude. Compound was added as a 3× solution containing 1% DMSO. After incubation with compound for 10 minutes currents were measured again. The current amplitude after compound addition was divided by the pre-compound current for pulse 10 to determine the fraction of current remaining after compound addition. For each compound, 8-point concentration-effect relationships were measured with ½ log serial dilutions.

The target in assay [1] is T2, TRPV1 (Homo sapiens, UniProt Q8NER1).
T2 construct: expressed in transfected cells; host or cells: HEK293-Tet-OFF
T2 sequence (Q8NER1 whole entry, species assumed): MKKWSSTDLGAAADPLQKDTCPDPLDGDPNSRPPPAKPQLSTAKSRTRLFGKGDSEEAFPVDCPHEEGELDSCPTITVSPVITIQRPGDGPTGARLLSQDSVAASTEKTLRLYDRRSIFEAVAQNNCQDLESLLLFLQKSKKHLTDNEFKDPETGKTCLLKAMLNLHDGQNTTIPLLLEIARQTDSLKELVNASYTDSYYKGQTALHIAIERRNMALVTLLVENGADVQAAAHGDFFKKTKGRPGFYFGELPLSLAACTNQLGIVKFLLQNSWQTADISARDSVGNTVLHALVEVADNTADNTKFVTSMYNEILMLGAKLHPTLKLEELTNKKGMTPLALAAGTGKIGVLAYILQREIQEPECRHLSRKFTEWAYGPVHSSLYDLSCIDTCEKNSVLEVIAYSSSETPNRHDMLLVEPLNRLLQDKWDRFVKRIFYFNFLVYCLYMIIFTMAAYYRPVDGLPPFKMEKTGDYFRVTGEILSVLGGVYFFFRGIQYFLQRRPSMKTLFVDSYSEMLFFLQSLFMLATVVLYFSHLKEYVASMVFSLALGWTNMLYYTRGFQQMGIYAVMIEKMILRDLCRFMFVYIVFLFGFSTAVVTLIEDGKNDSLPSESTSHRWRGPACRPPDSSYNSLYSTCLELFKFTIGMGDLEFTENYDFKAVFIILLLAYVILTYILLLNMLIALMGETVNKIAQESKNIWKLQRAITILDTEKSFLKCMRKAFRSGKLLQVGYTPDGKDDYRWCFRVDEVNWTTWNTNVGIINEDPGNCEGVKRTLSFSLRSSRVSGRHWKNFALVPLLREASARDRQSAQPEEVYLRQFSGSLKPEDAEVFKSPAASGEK
The assay can be described thus: TRPV1 Screening Assay (FLIPR). The format is cell-based. Particulars: HEK293-TetOFF-TRPV1, capsaicin (50 nM final), read-out: VR1 flipr CAPSAICIN IC50. The text has this: • 1) Cell line: HEK293-Tet^OFF-TRPV1 • 2) Media: MEM (Invitrogen) • 3) 10% Tet-FBS (Clontech #8630-1) • 4) Fungizone (Gibco #15290-018 (100×)) • 5) Penn/Strep (Gibco #15140-122 (100×)) • 6) Geneticin (Gibco #10131-027 (100×)) • 7) Hygromycin (Clontech #8057-1) • 8) Doxycycline (Clontech #8634-1) • 9) Trypsin/EDTA (Gibco #25200-056) • 10) 100 mm cell culture plates (Falcon #3003) • 11) 96-well poly-D-lysine plates (Fisher #08-774-256) • 12) Hank's Balanced Salt Solution (HBSS) (GIBCO #14025-092) • 13) HEPES Buffer (GIBCO #15630-080) • 14) 30% BSA (Research Organics #1334A) • 15) Probenecid (Sigma P-8761) • 16) Fluo-4, AM (50 μg) (Molecular robes F-23917) • 17) Pluronic F-127 20% (Molecular Probes P-3000). • 18) capsazepine (Sigma C-191) • 19) capsaicin (Sigma M-2028) • 20) compound plates (NUNC #442587) • 21) black pipet tips 96-well FLIPR (Robbins Scientific 1043-24-0) • 22) Additional reagents available from Fisher: methanol, DMSO, NaOH Reagent Preparation: 1) Cells: HEK293-Tet^OFF-TRPV11
• and Doxycycline 2.5 μg/mL final (from a 1000× stock in PBS) • Cells must be fed and/or split every 2-3 days (to maintain transcriptional repression with Doxycycline). • Must be split no more than 1:5 (50-75% confluency) to maintain growth and viability. • Grown on regular tissue culture plates (e.g. Falcon 3003-100 mm) • SpliT-cells via Trypsin/EDTA: incubate with trypsin at room temperature no longer than 5 min (HEK293 cells have a tendency to ball up if over trypsinized). • Two days prior to assay, the cells are split into 96-well plates in cell media in the absence of doxycycline at a concentration of 40,000 cells/well in a volume of 200 μL, 2) FLIPR buffer is prepared fresh:
Add 5 mL of Probenecid Solution, prepared as follows: 710 mg of probenecid (Sigma P-8761) is solubilized in 5 mL of 1 N NaOH, 5 mL of above buffer s added for final volume of 10 mL (of which 5 mL goes back into FLIPR buffer)
Combine 42 μL of dye mixture with 11 mL of FLIPR buffer/96-well plate.
Stock solution of 0.1 M capsaicin is prepared in MeOH (50 mg+1.6 mL MeOH). Store 50 μL aliquots at −80° C.
For assay: • a) Dilute stock by adding 0.8 μL into 1 mL of MeOH (final=80 μM). • b) Add 50 μL of diluted stock to 20 mL of FLIPR buffer (final=0.2 μM) • c) Agonist solution is added 150 μL/well to 96-well plate. • d) Final agonist concentration on cells will be 50 nM. […] Laser is adjusted upwards for an average signal≧10,000/well and less than 10% variability. 7) Compound addition conditions are as follows: • FLIPR setup (dual sequence parameters): • Sequence 1: • First interval 1 sec/60 counts • Second interval 6 sec/50 counts • Fluid addition=50 μL • Pipettor=110 μL • Dispense Speed=30 μL/sec • Sequence 2: • Second interval 1 sec/60 counts • Second interval 6 sec/40 counts • Fluid addition=50 μL • Pipettor height=140 μL • Dispense Speed=50 μL/sec Data Analysis:
1) Data from both additions is reported as Max-Min for each well

Assay [2] has as its target T2, TRPV1. The assay can be described thus: TRPV1 Screening Assay (FLIPR). To be noted: HEK293-TetOFF-TRPV1, PMA, read-out: VR1 flipr PMA IC50. The format is cell-based.
Another assay has as its target T3, human NPC1L1 (Homo sapiens, UniProt Q9UHC9).
T3 construct: expressed in transfected cells; host or cells: HEK-293 (geneticin selection)
T3 sequence (Q9UHC9 22-1359): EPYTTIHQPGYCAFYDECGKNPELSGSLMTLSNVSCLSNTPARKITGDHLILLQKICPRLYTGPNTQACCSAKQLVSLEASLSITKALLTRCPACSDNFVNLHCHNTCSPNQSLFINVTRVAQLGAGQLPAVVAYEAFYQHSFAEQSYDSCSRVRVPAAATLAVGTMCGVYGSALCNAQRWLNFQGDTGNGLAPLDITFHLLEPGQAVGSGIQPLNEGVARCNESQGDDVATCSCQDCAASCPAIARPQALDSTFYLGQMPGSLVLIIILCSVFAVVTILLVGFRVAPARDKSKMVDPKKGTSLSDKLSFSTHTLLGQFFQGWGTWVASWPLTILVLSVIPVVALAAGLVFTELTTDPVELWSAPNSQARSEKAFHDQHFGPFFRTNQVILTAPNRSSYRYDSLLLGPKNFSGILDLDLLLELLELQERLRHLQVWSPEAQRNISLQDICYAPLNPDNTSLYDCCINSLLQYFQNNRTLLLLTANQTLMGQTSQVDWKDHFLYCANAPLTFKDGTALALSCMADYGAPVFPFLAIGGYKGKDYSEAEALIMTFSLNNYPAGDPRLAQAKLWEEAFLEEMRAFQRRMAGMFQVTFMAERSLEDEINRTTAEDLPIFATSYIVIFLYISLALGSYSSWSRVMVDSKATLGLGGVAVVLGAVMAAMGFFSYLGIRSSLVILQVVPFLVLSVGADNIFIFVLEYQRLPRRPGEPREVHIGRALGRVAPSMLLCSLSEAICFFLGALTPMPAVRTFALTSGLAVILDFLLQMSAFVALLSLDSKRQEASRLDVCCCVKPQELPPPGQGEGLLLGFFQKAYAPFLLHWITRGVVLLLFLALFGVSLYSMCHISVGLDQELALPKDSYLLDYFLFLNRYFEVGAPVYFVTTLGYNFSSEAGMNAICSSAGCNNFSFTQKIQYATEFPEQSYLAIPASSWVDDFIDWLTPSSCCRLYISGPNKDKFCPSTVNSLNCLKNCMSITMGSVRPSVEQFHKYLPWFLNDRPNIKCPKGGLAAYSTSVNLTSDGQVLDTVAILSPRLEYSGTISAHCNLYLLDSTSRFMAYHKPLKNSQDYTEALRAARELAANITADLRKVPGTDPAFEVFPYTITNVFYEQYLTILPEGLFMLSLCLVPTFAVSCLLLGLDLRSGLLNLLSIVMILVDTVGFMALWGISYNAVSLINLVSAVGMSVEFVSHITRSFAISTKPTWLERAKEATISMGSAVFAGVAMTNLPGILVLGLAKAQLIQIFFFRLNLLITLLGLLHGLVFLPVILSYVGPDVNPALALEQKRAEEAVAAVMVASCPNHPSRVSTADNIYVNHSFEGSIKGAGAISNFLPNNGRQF
The assay can be described thus: NPC1L1 Binding Assay, human. To be noted: HEK-293 cells expressing human NPC1L1; competition with 250 nM BODIPY-labeled glucuronidated ezetimibe, 4 h at 37° C. The protocol:
HEK-293 cells expressing human NPC1L1 were plated into 384-well black/clear plates (BD Biosciences, Bedford Mass.) for binding experiments the following day. Cell growth media (DMEM, 10% fetal calf serum, 1 mg/mL geneticin, 100 Units/mL penicillin) was aspirated. Cell growth media ([…]) containing 250 nM BODIPY-labeled glucuronidated ezetimibe was added to each well. Cell growth media ([…] containing the indicated concentration of compound was then added to the wells unlabeled glucuronidated ezetimibe […]) was used to determine nonspecific binding. The binding reaction was allowed to proceed for 4 h at 37° C. Subsequently the cell growth media was aspired and the cells washed once with PBS. The remaining fluorescent labeled glucuronidated ezetimibe bound to the cells was quantified using a FlexStation plate reader (Molecular Devices, Sunnyvale Calif.) to measure fluorescence intensity. Ki values were determined from competition binding curves (n=4 for each point) using Prism and Activity Base software.

T1 sequence (O95180 whole entry): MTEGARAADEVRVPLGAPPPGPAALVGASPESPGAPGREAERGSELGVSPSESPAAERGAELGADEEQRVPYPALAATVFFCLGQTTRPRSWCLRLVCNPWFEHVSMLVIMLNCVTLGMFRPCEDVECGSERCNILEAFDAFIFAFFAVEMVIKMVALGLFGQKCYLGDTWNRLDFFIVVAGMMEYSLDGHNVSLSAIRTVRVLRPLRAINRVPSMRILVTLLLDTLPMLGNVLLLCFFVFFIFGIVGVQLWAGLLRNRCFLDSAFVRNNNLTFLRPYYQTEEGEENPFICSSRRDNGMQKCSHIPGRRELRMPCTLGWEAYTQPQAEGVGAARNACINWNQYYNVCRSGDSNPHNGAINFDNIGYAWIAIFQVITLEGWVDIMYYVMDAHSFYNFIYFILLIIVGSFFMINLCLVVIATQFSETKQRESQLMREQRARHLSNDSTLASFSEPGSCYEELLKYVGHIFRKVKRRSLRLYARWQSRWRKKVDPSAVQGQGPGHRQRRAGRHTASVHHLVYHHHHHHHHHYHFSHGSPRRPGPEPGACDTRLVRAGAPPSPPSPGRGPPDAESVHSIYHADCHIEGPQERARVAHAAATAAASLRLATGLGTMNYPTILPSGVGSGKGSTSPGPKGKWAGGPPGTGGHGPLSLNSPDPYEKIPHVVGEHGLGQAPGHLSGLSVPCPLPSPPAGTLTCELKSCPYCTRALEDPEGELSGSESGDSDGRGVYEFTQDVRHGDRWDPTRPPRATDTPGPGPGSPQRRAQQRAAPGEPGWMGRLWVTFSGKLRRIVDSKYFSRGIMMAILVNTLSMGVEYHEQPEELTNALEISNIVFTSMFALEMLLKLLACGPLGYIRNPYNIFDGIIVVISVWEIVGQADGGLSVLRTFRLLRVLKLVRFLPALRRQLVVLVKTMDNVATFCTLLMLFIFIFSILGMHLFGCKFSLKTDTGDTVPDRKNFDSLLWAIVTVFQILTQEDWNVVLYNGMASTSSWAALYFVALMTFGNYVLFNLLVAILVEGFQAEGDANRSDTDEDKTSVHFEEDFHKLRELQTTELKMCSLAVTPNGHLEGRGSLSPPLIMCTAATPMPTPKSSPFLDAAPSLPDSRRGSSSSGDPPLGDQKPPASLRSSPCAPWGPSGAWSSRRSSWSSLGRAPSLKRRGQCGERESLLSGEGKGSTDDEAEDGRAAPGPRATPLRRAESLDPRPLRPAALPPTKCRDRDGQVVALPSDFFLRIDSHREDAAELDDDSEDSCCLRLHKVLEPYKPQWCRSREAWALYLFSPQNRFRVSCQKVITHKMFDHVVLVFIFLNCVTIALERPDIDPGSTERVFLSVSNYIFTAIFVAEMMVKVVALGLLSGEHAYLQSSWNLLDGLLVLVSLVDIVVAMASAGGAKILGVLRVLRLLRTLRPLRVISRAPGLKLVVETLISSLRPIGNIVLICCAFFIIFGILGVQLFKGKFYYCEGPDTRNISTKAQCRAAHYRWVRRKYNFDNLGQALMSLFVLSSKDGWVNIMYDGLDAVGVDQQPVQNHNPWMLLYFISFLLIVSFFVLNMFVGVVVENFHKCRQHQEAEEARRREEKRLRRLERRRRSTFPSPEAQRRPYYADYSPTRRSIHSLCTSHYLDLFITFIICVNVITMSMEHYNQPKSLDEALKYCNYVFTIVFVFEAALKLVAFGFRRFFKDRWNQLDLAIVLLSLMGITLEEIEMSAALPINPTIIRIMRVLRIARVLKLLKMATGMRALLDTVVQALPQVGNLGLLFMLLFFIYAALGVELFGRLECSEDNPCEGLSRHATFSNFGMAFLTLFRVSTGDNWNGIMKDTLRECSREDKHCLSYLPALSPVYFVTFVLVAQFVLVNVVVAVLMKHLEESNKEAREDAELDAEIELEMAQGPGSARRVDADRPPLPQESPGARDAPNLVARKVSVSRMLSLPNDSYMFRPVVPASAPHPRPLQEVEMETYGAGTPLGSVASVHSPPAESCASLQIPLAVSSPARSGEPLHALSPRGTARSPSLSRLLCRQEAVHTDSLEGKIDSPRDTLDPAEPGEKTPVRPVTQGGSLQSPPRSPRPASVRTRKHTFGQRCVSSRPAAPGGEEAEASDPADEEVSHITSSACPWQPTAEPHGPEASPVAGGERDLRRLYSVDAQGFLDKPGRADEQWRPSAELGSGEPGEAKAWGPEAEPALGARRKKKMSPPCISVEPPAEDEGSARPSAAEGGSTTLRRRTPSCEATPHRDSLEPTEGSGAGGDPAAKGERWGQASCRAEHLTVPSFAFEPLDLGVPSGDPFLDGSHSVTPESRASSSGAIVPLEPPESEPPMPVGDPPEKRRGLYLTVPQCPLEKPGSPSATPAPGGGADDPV

The term pIC50 denotes the negative decadic logarithm of the IC50, by convention in mol/L. With `O=C(Nc1ccc(F)c(F)c1)N1CCC2(CC1)C(=O)N(c1ccccc1)C2c1ccc(Cl)cc1` (stereo not drawn), the pIC50 at human Cav3.2 is 6.44. The same measure, in the same setting: the same measure for `CC(C)N1C(=O)C2(CCN(C(=O)Nc3ccc(Cl)cc3)CC2)C1c1ccc(Cl)cc1` (stereo not drawn): 6.37; for `CC(C)N1C(=O)C2(CCN(C(=O)Nc3cc(Cl)cc(Cl)c3)CC2)C1c1ccc(Cl)cc1` (stereo not drawn): 6.67. On the same count and under the same terms, the same measure for `CC(C)N1C(=O)C2(CCN(C(=O)Nc3ccc(F)c(F)c3)CC2)C1c1ccc(Cl)cc1` (stereo not drawn): 6.52; for `O=C(Nc1ccc(F)c(F)c1)N1CCC2(CC1)C(=O)N(c1ccc(F)cc1)C2c1ccc(Cl)cc1` (stereo not drawn): 6.53; for `O=C(Nc1cc(F)cc(F)c1)N1CCC2(CC1)C(=O)N(c1ccc(F)cc1)C2c1ccc(Cl)cc1` (stereo not drawn): 6.30. Still for that read-out and setting: the same measure for `O=C(Nc1ccc(F)c(F)c1)N1CCC2(CC1)C(=O)N(c1ccc(F)cc1)C2c1ccccn1` (stereo not drawn): 6.31; for `O=C(Nc1ccccc1)N1CCC2(CC1)C(=O)N(c1cccc(Cl)c1)C2c1ccccn1` (stereo not drawn): 6.62.

Regarding `O=C(Nc1ccc(F)c(F)c1)N1CCC2(CC1)C(=O)N(c1cccc(Cl)c1)C2c1ccccn1` (stereo not drawn), the pIC50 at human Cav3.2 is 6.93. For `O=C(Nc1ccc(C(F)(F)F)cc1)N1CCC2(CC1)C(=O)N(c1ccccc1)C2c1ccccc1` (stereo not drawn), the pIC50 at TRPV1 [1] was 6.77.

With `O=C(Nc1ccc(C(F)(F)F)cc1)N1CCC2(CC1)C(=O)N(c1cncnc1)C2c1ccccc1` (stereo not drawn), the pIC50 on TRPV1 [1] was 6.74; at TRPV1 [2], 6.68. The matching figures for `O=C(Nc1cccc2ccccc12)N1CCC2(CC1)C(=O)N(c1ccccc1)C2c1ccccn1` (stereo not drawn): 6.70 and 6.63. Turning to `CC(C)c1ccc(NC(=O)N2CCC3(CC2)C(=O)N(c2cncnc2)C3c2ccccc2)cc1` (stereo not drawn), the pIC50 is 6.62 on TRPV1 [1] and 6.81 on TRPV1 [2].

The term pKi denotes −log10 of the Ki, conventionally taken in molar units. Low readings indicate a large Ki, high ones a small Ki. Turning to `COc1ccc(Cl)cc1NC(=O)N1CCC2(CC1)C(=O)N(c1ccccc1)C2c1ccccc1` (stereo not drawn), the pKi at human NPC1L1 was 5.20. As to `O=C(Nc1ccccc1C(F)(F)F)N1CCC2(CC1)C(=O)N(c1ccccc1)C2c1ccccc1` (stereo not drawn), on human NPC1L1, the pKi was 5.09. As to `Cc1cccc(C)c1NC(=O)N1CCC2(CC1)C(=O)N(c1ccccc1)C2c1ccccc1` (stereo not drawn), on human NPC1L1, the pKi is 5.09.

Take `O=C(Nc1cccc2ccccc12)N1CCC2(CC1)C(=O)N(c1ccccc1)C2c1ccccc1` (stereo not drawn): at human NPC1L1, the pKi is 5.60. Consider `Cc1c(Cl)cccc1NC(=O)N1CCC2(CC1)C(=O)N(c1ccccc1)C2c1ccccc1` (stereo not drawn) [drawing 414], for which the pIC50 on human Cav3.2 was 6.72.
